# Assay results reported in paper PMC5587909, “Inhibition of the ATP Synthase Eliminates the Intrinsic Resistance of Staphylococcus aureus towards Polymyxins” (mBio, 2017).
# Bridge positions count the residues as written; N and C are the ends. Square brackets hold non-standard residues; d marks the D form. Peptide text beside a SMILES is read from it. * marks the point of attachment. Ileψ(thiazoline)Cys = CC[C@H](C)[C@H](N)C1=N[C@H](C(=O)*)CS1; dOrn = NCCC[C@@H](N)C(=O)O
# Tests used:
# S. aureus = settings: cited from earlier work
# S. aureus JE2 (WT) [1] = format: cell-based, Staphylococcus aureus; settings: 2-fold broth microdilution in TSB (100 µl), inoculum approx. 5 × 10^5 cells/ml, 37°C, 22 h
# From the text: (§1) The strains used in this study include S. aureus strain JE2 (plasmid-cured derivative of USA300 LAC) and all derivative strains within the Nebraska Transposon Mutant Library (NTML), consisting of 1,920 unique transposon mutants with inactivation of nonessential genes ([15]). The bursa aurealis transposon used to create the collection contains the resistance cassette ermB, which confers resistance to erythromycin ([15]). Additionally we used S. aureus SA113 and two derivatives, SA113 ΔdltA ([9]) and SA113 ΔmprF ([10]). All bacterial strains were cultured at 37°C in tryptic soy broth (TSB) or on tryptic soy agar (TSA), with antimicrobial agents added as indicated. Two methods have been employed to determine MICs to various antimicrobial agents. (i) A 2-fold broth microdilution assay in TSB (100 µl) with an initial inoculum of approximately 5 × 10^5 cells/ml was employed to determine the MICs of polymyxin B sulfate (Sigma), gallidermin (Santa Cruz Biotechnology), nisin (Sigma), bacitracin (Sigma), and LL-37 (Isca Biochemicals). (ii) An Etest (BioMérieux) performed on TSA plates was employed to determine MICs for polymyxin B, colistin, ciprofloxacin, oxacillin, linezolid, gentamicin, vancomycin, and daptomycin. The MIC was determined upon incubation at 37°C for 22 h. When indicated, the Etest (BioMérieux) was performed on Mueller-Hinton agar plates (cation adjusted for calcium and magnesium).
# [2] = tested on: S. aureus JE2 atpA mutant; format: cell-based, Staphylococcus aureus; settings: 2-fold broth microdilution in TSB (100 µl), inoculum approx. 5 × 10^5 cells/ml, 37°C, 22 h
# From the text: as §1
# [3] = tested on: S. aureus JE2 graR mutant; format: cell-based, Staphylococcus aureus; settings: for MIC, graR: 2-fold broth microdilution in TSB (100 µl), inoculum approx. 5 × 10^5 cells/ml, 37°C, 22 h, graR mutant
# From the text: as §1
# [4] = tested on: S. aureus JE2 vraF mutant; format: cell-based, Staphylococcus aureus; settings: for MIC, vraF: 2-fold broth microdilution in TSB (100 µl), inoculum approx. 5 × 10^5 cells/ml, 37°C, 22 h, vraF mutant
# From the text: as §1
# [5] = tested on: S. aureus JE2 vraG mutant; format: cell-based, Staphylococcus aureus; settings: 2-fold broth microdilution in TSB (100 µl), inoculum approx. 5 × 10^5 cells/ml, 37°C, 22 h
# From the text: as §1
# S. aureus JE2 (WT) [6] = experiment: Kill curve experiment, polymyxin B with or without oligomycin A; format: cell-based, Staphylococcus aureus; settings: WT JE2 in TSB; oligomycin A alone at 8 μg/ml
# From the text: The ATP synthase is a well-described protein complex, and multiple inhibitors have been identified that interfere with its function—e.g., the macrolide oligomycin A ([32]). […] The combinatory efficacy of PMB and oligomycin A is similar to the observed killing efficacy of PMB against the atpA mutant.
# FIG 4 Improved killing efficacy of PMB upon inhibition of the ATP synthase. […] The data represent the average from three measurements, with error bars showing 95% confidence intervals.
# From overnight cultures of S. aureus JE2 and the derivative atpA mutant, 100 μl was diluted into 900 μl fresh TSB medium in a Falcon tube and grown for 1 h for the cells to reach the early exponential phase. After 1 h, the cultures were diluted into 10 ml fresh TSB medium in 100-ml Erlenmeyer flasks, reaching an initial cell count of approximately 10^6 cells/ml. Oligomycin A (Sigma) was added to flasks as indicated at a concentration of 8 μg/ml. […] CFU were determined on TSA plates before addition of oligomycin A (time zero [T0]), before addition of polymyxin B (time 30 min [T30]), and every hour for the following 4 h.
# [7] = tested on: mitochondrial ATP synthase; settings: cited from earlier work
Compound,activity against S. aureus (S. aureus),"MIC, WT (S. aureus JE2 (WT) [1]) [µg/mL]","MIC, atpA [2] [µg/mL]","MIC, graR [3] [µg/mL]","fold increased sensitivity relative to WT ([3]; graR mutant vs WT JE2, broth microdilution in TSB)","MIC, vraF [4] [µg/mL]","fold increased sensitivity relative to WT ([4]; vraF mutant vs WT JE2, broth microdilution in TSB)","MIC, vraG [5] [µg/mL]",killing efficacy (CFU over time) (S. aureus JE2 (WT) [6]),inhibition of the mitochondrial ATP synthase (nonselective) [7]
"COc1nc2ccc(Br)cc2cc1[C@@H](c1ccccc1)[C@@](O)(CCN(C)C)c1cccc2ccccc12 [Bedaquiline, bedaquiline]",limited or no activity,,,,,,,,,
CC[C@H](C)[C@H](NC(=O)[C@H](CCCCN)NC(=O)[C@H](CCC(=O)O)NC(=O)[C@H](CCCCN)NC(=O)[C@H](CO)NC(=O)[C@H](CCCCN)NC(=O)[C@H](CCCNC(=N)N)NC(=O)[C@H](Cc1ccccc1)NC(=O)[C@H](Cc1ccccc1)NC(=O)[C@H](CC(=O)O)NC(=O)CNC(=O)[C@H](CC(C)C)NC(=O)[C@@H](N)CC(C)C)C(=O)NCC(=O)N[C@@H](CCCCN)C(=O)N[C@@H](CCC(=O)O)C(=O)N[C@@H](Cc1ccccc1)C(=O)N[C@@H](CCCCN)C(=O)N[C@@H](CCCNC(=N)N)C(=O)N[C@H](C(=O)N[C@H](C(=O)N[C@@H](CCC(N)=O)C(=O)N[C@@H](CCCNC(=N)N)C(=O)N[C@H](C(=O)N[C@@H](CCCCN)C(=O)N[C@@H](CC(=O)O)C(=O)N[C@@H](Cc1ccccc1)C(=O)N[C@@H](CC(C)C)C(=O)N[C@@H](CCCNC(=N)N)C(=O)N[C@@H](CC(N)=O)C(=O)N[C@@H](CC(C)C)C(=O)N[C@H](C(=O)N1CCC[C@H]1C(=O)N[C@@H](CCCNC(=N)N)C(=O)N[C@H](C(=O)N[C@@H](CCC(=O)O)C(=O)N[C@@H](CO)C(=O)O)[C@@H](C)O)C(C)C)[C@@H](C)CC)C(C)C)[C@@H](C)CC [LL-37],,>128,>128,64,at least 2 fold,64,at least 2 fold,128,,
"CC[C@H](C)[C@H](N)C1=N[C@H](C(=O)N[C@@H](CC(C)C)C(=O)N[C@H](CCC(=O)O)C(=O)N[C@H](C(=O)N[C@H]2CCCCNC(=O)[C@H](CC(N)=O)NC(=O)[C@@H](CC(=O)O)NC(=O)[C@H](Cc3cnc[nH]3)NC(=O)[C@@H](Cc3ccccc3)NC(=O)[C@H]([C@@H](C)CC)NC(=O)[C@@H](CCCN)NC2=O)[C@@H](C)CC)CS1 [Bacitracin, bacitracin] ({Ileψ(thiazoline)Cys}-L[dE]IK[dOrn]I[dF]H[dD]N; lactam 4-C (inferred); N-terminus assumed)",,256,128,128,,256,,256,,
oligomycin A,,,,,,,,,did not display any killing efficacy,inhibits the mitochondrial ATP synthase
